# From publication PMC3500254, “Potent Inhibition of Late Stages of Hepadnavirus Replication by a Modified Cell Penetrating Peptide” (PLoS ONE, 2012)
# Legend:
# [1] = test system: Duck Hepatitis B Virus (DHBV); assay: Intracellular viral RNA and DNA replicative forms in LMH-D2 cells (Northern and Southern blot); assay type: cell-based; conditions: 5 days, Deca-(Arg)8 at 2 µM, 3-TC as control, Northern blot normalized on GAPDH RNA
# Method: (§1) To determine whether the decrease in DHBV secretion is caused by an inhibition of virus replication, LMH-D2 cells and PDHs were treated with different concentration of Deca-(Arg)8 followed by quantification of viral RNA and intracellular DNA replication intermediates by Northern and Southern blot, respectively. As a control, cells were treated by 3-TC, which is a specific inhibitor of the DHBV polymerase, [33]. […] An unspecific effect on transcription can be excluded as mRNA synthesis in transfected LMH-D2 cells was not impaired.
# (§2) Figure 4 Effect of Deca-(Arg)8 on the intracellular hepadnavirus intermediate replicative forms. Infected PDH (A), and stably DHBV-transfected LMH-D2 (B) cells were treated with different amounts of Deca-(Arg)8 ranking from 0.5 µM to 2 µM for 5 days. At the end of treatment, the cells were harvested and lysed for DNA and RNA extraction. […] For the Northern blot the level of DHBV RNA was normalized on the GAPDH RNA amount. […] Bands corresponding to the expected size of relaxed circular (RC), linear (L), single-stranded (SS) and covalently closed circular (ccc) DHBV DNA are indicated. […]
# (§3) Cells supernatants were harvested daily, spotted onto positively charged nylon membrane and extracellular DHBV DNA was detected in supernatant of cells by dot blot hybridization assay using a full-length ^32P-labelled DHBV probe as described previously. […]
# [2] = test system: Duck Hepatitis B Virus (DHBV); assay: Intracellular viral RNA and DNA replicative forms in infected PDH (Northern and Southern blot); assay type: cell-based; conditions: 5 days, 3-TC as control
# Method: as §1, §2, §3
compound,measurement,setting,value
"Nc1ccn([C@@H]2CS[C@H](CO)O2)c(=O)n1 [3-TC, Lamivudine]",viral RNA levels,[1],not impaired
same,viral RNA levels,"[2]; PDH, Deca-(Arg)8 at 2 µM, Northern blot normalized on GAPDH RNA",reduction of viral mRNA synthesis
same,cccDNA,"[2]; infected PDH, Deca-(Arg)8 0.5 µM to 2 µM, Southern blot",prevented cccDNA formation
